Assay results published in BindingDB's records for doi:10.1021/jm00397a034 (Hoffmann-La Roche, 1988).

Assays:
[1] = Ability to inhibit platelet activating factor (PAF) binding to platelets by 50% was determined by using [3H]PAF as radioligand
[2] = molecular target: Platelet-activating factor receptor (Canis familiaris); assay: ChEBML_158835
Experimental: Ability to inhibit platelet activating factor (PAF) binding to platelets by 50% was determined by using [3H]PAF as radioligand

IC50 [1] [µM]	IC50 [2] [µM]	Structure (SMILES)
0.6		CC(C)Oc1ccc2nc3ccc(C(=O)NCCCCc4cccnc4)cn3c(=O)c2c1
1.2		O=C(NCCCCc1cccnc1)c1ccc2nc3ccc(O)cc3c(=O)n2c1
0.2		CC(C)c1ccc2nc3ccc(C(=O)NCCCCCCc4cncnc4)cn3c(=O)c2c1 [2-Isopropyl-11-oxo-11H-pyrido[2,1-b]quinazoline-8-carboxylic acid (6-pyrimidin-5-yl-hexyl)-amide]
> 1		CC(C)c1ccc2nc3ccc(CNCCCCc4cccnc4)cn3c(=O)c2c1 [2-Isopropyl-8-[(4-pyridin-3-yl-butylamino)-methyl]-pyrido[2,1-b]quinazolin-11-one]
0.25		Cc1cc2nc3ccc(C(=O)NCCCCc4cccnc4)cn3c(=O)c2cc1C
5		CC(C)c1ccc2nc3ccc(C(=O)NCCCCc4ccccn4)cn3c(=O)c2c1
	0.25	CC(C)c1ccc2nc3ccc(C(=O)N[C@H](C)CCCc4cccnc4)cn3c(=O)c2c1 [2-Isopropyl-11-oxo-11H-pyrido[2,1-b]quinazoline-8-carboxylic acid (1-methyl-4-pyridin-3-yl-butyl)-amide]
> 1		CC(C)c1ccc2nc3ccc(C(=O)NCCCc4cccnc4)cn3c(=O)c2c1
> 1		CC(C)c1ccc2nc3ccc(C(=O)OCCCCc4cccnc4)cn3c(=O)c2c1 [2-Isopropyl-11-oxo-11H-pyrido[2,1-b]quinazoline-8-carboxylic acid 4-pyridin-3-yl-butyl ester]
0.37		COc1ccc2c(=O)n3cc(C(=O)NCCCCc4cccnc4)ccc3nc2c1
	0.6	CC(C)c1ccc2nc3ccc(C(=O)N[C@@H](C)CCCc4cccnc4)cn3c(=O)c2c1 [2-Isopropyl-11-oxo-11H-pyrido[2,1-b]quinazoline-8-carboxylic acid (1-methyl-4-pyridin-3-yl-butyl)-amide]
0.45		CC(C)c1ccc2nc3ccc(C(=O)NCCCCc4cncnc4)cn3c(=O)c2c1
1.2		CC(C)c1ccc2nc3ccc(C(=O)NC(C)(C)CCCc4cccnc4)cn3c(=O)c2c1
1		O=C(NCCCCc1cccnc1)c1ccc2nc3cc(Cl)ccc3c(=O)n2c1
> 1		Cc1cc2nc3ccc(C(=O)NCCCCc4ccc[n+](C)c4)cn3c(=O)c2cc1C [3-{4-[(2,3-Dimethyl-11-oxo-11H-pyrido[2,1-b]quinazoline-8-carbonyl)-amino]-butyl}-1-methyl-pyridinium]
1.8		O=C(NCCCCc1cccnc1)c1ccc2nc3ccccc3c(=O)n2c1

IC50 [1] [µM]	IC50 [2] [µM]	Structure (SMILES)
> 1		Cc1cc2nc3ccc(C(=O)NCCCCc4cnc[n+](C)c4)cn3c(=O)c2cc1C [5-{4-[(2,3-Dimethyl-11-oxo-11H-pyrido[2,1-b]quinazoline-8-carbonyl)-amino]-butyl}-1-methyl-pyrimidin-1-ium]
> 1		CC(C)c1ccc2nc3ccc(S(=O)(=O)NCCCCc4cccnc4)cn3c(=O)c2c1 [2-Isopropyl-11-oxo-11H-pyrido[2,1-b]quinazoline-8-sulfonic acid (4-pyridin-3-yl-butyl)-amide]
> 1		CC(C)c1ccc2nc3ccc(C(=O)NCCCCCCCc4cccnc4)cn3c(=O)c2c1
2.5		CC(C)c1ccc2nc3ccc(C(=O)NCCc4cccnc4)cn3c(=O)c2c1
0.1		Cc1cc2nc3ccc(C(=O)NCCCCc4cncnc4)cn3c(=O)c2cc1C [2,3-Dimethyl-11-oxo-11H-pyrido[2,1-b]quinazoline-8-carboxylic acid (4-pyrimidin-5-yl-butyl)-amide]
0.5		Cc1ccc2nc3ccc(C(=O)NCCCCc4cccnc4)cn3c(=O)c2c1
3.5		CC(C)c1ccc2nc3ccc(C(=O)NCCCCn4ccnc4)cn3c(=O)c2c1
> 1		CC(C)c1ccc2nc3ccc(CCCCCCc4cccnc4)cn3c(=O)c2c1 [2-Isopropyl-8-(6-pyridin-3-yl-hexyl)-pyrido[2,1-b]quinazolin-11-one]
1		COc1ccc2nc3ccc(C(=O)NCCCCc4cccnc4)cn3c(=O)c2c1
> 1		CC(C)c1ccc2nc3ccc(C(=O)NCCCCCc4cccnc4)cn3c(=O)c2c1
	0.4	CC(CCCc1cccnc1)NC(=O)c1ccc2nc3ccc(C(C)C)cc3c(=O)n2c1 (configuration not stated)
0.4		CC(C)c1ccc2nc3ccc(C(=O)NCCCCCCc4cccnc4)cn3c(=O)c2c1
0.35		CC(C)c1ccc2nc3ccc(C(=O)NCCCCc4cccnc4)cn3c(=O)c2c1
0.7		O=C(NCCCCc1cccnc1)c1ccc2nc3ccc(Br)cc3c(=O)n2c1
1.3		CC(C)c1ccc2nc3ccc(C(=O)NCCCCc4ccncc4)cn3c(=O)c2c1
> 1		Cc1cc2nc3ccc(C(=O)NCCCCCC[n+]4ccccc4)cn3c(=O)c2cc1C [1-{6-[(2,3-Dimethyl-11-oxo-11H-pyrido[2,1-b]quinazoline-8-carbonyl)-amino]-hexyl}-pyridinium]
